# Columns and labels:
# hA2AAR = biological target: T1, hA2AAR (Homo sapiens, UniProt P29274); assay: Competition binding, [3H]ZM241385, hA2A CHO cell membranes; settings: for Ki: displacement of [3H]ZM241385, hA2A CHO cells, mean ± SEM of four assays
# T1 construct: host or cells: CHO cells
# Description: (§1) CHO cells transfected with hA1, hA2A, hA2B and hA3 ARs (Perkin Elmer, Boston, MA, USA) were grown adherently and maintained in Dulbecco’s modified Eagle’s medium with nutrient mixture F12, containing 10% fetal calf serum, penicillin (100 U/mL), streptomycin (100 μg/mL), L-glutamine (2 mM) and geneticine (G418; 0.2 mg/mL), at 37 °C, in 5% CO2/95% air, until their use in cAMP assays. For membrane preparation, the culture medium was removed, and the cells were washed with phosphate-buffered saline and scraped off T75 flasks in ice-cold hypotonic buffer (5 mM Tris HCl, 1 mM EDTA, pH 7.4). The cell suspension was homogenized with a Polytron, centrifuged for 30 min at 40,000× g, at 4 °C, and the resulting membrane pellet was used for competition binding experiments.
# (§2) All synthesized compounds were tested for their affinity to hA1, hA2A and hA3 ARs. Competition experiments to hA1AR were carried out by incubating 1 nM [^3H]-8-cyclopentyl-1,3-dipropylxanthine ([^3H]-DPCPX) with membrane suspension (50 μg of protein/100 μL) and different concentrations of the examined compounds at 25 °C for 90 min in 50 mM Tris HCl, pH 7.4. Non-specific binding was defined as binding in the presence of 1 μM DPCPX and was always <10% of the total binding. Inhibition experiments to hA2A ARs were performed by incubating the radioligand [^3H]-4-(-2-[7-amino-2-{2-furyl}{1,2,4}triazolo{2,3-a} {1,3,5}triazin-5-yl-amino]ethyl)phenol ([^3H]-ZM241385) (1 nM) with the membrane suspension (50 μg of protein/100 μL) and different concentrations of the examined compounds for 60 min, at 4 °C, in 50 mM Tris HCl (pH 7.4), 10 mM MgCl2. Non-specific binding was determined in the presence of ZM241385 (1 μM) and was about 20% of the total binding. Competition binding experiments to A3ARs were carried out by incubating the membrane suspension (50 μg of protein/100 μL) with 0.5 nM [^125I]-N6-(4-aminobenzyl)-N-methylcarboxamidoadenosine ([^125I]-ABMECA) in the presence of different concentrations of the examined compounds for an incubation time of 120 min, at 4 °C, in 50 mM Tris HCl (pH 7.4), 10 mM MgCl2, 1 mM EDTA. Non-specific binding was defined as binding in the presence of 1 μM ABMECA and was always <10% of the total binding. Bound and free radioactivity were separated by filtering the assay mixture through Whatman GF/B glass-fiber filters, using a Brandel cell harvester (Brandel Instruments, Unterföhring, Germany). The filter bound radioactivity was counted by Packard Tri Carb 2810 TR scintillation counter (Perkin Elmer).
# (§3) The protein concentration was determined according to a Bio-Rad method, with bovine albumin as a standard reference. Inhibitory binding constant (Ki) values were calculated from those of IC50 according to the Cheng–Prusoff equation, Ki = IC50/(1 + [C*]/KD*), where [C*] is the concentration of the radioligand, and KD* its dissociation constant. Ki and IC50 values were calculated by non-linear regression analysis, using the equation for a sigmoid concentration-response curve (Graph-PAD Prism, San Diego, CA, USA).
# hA1AR [1] = biological target: T2, hA1AR (Homo sapiens, UniProt P30542); assay: Competition binding, [3H]DPCPX, hA1 CHO cell membranes; settings: displacement of [3H]DPCPX, hA1 CHO cells; mean ± SEM of four assays
# T2 construct: host or cells: CHO cells
# T2 sequence (P30542 1-326): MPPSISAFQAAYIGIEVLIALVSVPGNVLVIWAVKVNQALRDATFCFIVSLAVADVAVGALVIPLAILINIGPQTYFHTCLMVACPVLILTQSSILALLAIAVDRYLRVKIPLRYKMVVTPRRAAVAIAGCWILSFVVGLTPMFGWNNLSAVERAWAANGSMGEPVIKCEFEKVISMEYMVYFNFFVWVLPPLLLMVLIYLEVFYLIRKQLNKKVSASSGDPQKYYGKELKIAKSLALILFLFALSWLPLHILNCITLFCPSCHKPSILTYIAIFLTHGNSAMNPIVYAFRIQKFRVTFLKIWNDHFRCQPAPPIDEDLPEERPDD
# Description: as §1, §2, §3
# hA2B AR [2] = biological target: T3, hA2B AR (Homo sapiens, UniProt P29275); assay: cAMP assay in CHO cells expressing hA2B AR (stimulation of cAMP production); assay type: cell-based; settings: for Emax at 1 µM: CHO, 1 µM compound, in comparison with NECA (1 µM = 100%), read-out: Efficacy hA2B (cAMP assay) (converted); for EC50: hA2B CHO cells, mean ± SEM of four assays
# T3 construct: host or cells: CHO cells
# T3 sequence (P29275 1-332): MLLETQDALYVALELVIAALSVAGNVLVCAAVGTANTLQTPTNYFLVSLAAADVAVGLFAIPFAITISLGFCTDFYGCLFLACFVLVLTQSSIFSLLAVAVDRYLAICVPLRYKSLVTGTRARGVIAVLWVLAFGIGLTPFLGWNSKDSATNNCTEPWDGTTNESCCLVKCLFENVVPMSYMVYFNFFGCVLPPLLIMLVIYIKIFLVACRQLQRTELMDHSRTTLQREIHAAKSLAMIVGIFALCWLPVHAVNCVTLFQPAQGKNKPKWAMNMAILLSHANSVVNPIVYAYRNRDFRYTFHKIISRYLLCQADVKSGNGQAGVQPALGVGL
# Description: (§4) The amino-3,5-dicyanopyridines 1–21 were tested for their affinity at hA1, hA2A and hA3 ARs, stably transfected in Chinese Hamster Ovary (CHO) cells. Moreover, they were also studied as hA2B agonists by evaluating their stimulatory effect on cAMP production in CHO cells, stably expressing the hA2B AR. […] Due to their interesting pan profile, both compounds 1 and 5 were evaluated as AR agonists also at the hA2A and hA3 subtypes.
# as §1
# (§5) CHO cells transfected with hAR subtypes were washed with phosphate-buffered saline, detached with tripsine and centrifuged for 10 min at 200× g. Cells were seeded in a 96-well white half-area microplate (Perkin Elmer, Boston, USA) in a stimulation buffer composed of Hank Balanced Salt Solution, 5 mM HEPES, 0.5 mM Ro 20–1724, 0.1% BSA. The cAMP levels were then quantified by using the AlphaScreen cAMP Detection Kit (Perkin Elmer, Boston, MA, USA), following the manufacturer’s instructions. At the end of the experiments, the plates were read with a Perkin Elmer EnSight Multimode Plate Reader.
# hA3AR = biological target: T4, hA3AR (Homo sapiens, UniProt P0DMS8); assay: Competition binding, [125I]AB-MECA, hA3 CHO cell membranes; settings: for Ki: displacement of [125I]AB-MECA, hA3 CHO cells, mean ± SEM of four assays; for inhibition at 1 µM: 1 µM compound, [125I]AB-MECA binding, read-out: I% hA3 (percentage of inhibition)
# T4 construct: host or cells: CHO cells
# T4 sequence (P0DMS8 1-318): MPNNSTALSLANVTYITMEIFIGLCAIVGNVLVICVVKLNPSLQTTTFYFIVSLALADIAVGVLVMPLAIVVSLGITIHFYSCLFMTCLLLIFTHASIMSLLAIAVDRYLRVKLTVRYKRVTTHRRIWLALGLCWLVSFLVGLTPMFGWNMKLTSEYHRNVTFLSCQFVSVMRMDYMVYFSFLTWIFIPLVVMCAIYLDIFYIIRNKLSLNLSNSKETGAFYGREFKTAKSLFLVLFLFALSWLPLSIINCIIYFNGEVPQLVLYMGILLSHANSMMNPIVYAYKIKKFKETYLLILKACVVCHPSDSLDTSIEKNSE
# Description: as §1, §2, §3
# hA1AR [3] = biological target: T2, hA1AR; assay: Modulation of Forskolin-stimulated cAMP levels in hA1 CHO cells; assay type: cell-based; settings: for IC50: footnote d, vs CCPA 10 nM; for hA1AR Efficacy: normalized: CCPA full agonist = 100%, DPCPX inverse agonist = −100%; for hA1AR Profile: pharmacological profile in cAMP assay
# Description: as §4, §1, §5
# hA2B AR [4] = biological target: T3, hA2B AR; set-up: method as in PMID 15239649; settings: in comparison with NECA; ref [2]; cited from earlier work
# T1 sequence (P29274 whole entry): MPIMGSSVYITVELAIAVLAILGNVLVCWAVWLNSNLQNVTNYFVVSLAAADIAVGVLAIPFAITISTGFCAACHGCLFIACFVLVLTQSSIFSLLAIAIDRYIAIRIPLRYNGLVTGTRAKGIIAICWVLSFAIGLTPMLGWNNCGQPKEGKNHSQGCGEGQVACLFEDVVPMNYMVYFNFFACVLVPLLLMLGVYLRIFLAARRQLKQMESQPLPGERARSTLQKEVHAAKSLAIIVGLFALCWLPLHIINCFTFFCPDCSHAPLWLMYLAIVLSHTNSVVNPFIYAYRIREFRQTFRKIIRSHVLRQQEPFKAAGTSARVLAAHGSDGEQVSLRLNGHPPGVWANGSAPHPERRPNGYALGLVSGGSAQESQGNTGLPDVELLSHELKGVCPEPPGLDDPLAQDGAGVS
Structure (SMILES),Ki (hA2AAR) [µM],melting point [°C],Ki (hA1AR [1]) [µM],Emax at 1 µM (hA2B AR [2]) [%],EC50 (hA2B AR [2]) [µM],Ki (hA3AR) [µM],IC50 (hA1AR [3]) [µM],hA1AR Efficacy (hA1AR [3]) [%],hA1AR Profile (hA1AR [3]),inhibition at 1 µM (hA3AR) [%],"EC50 (hA1AR [3]; footnote c, mean ± SEM of four experiments, read-out: hA1AR EC50 or IC50, potency to modulate Forskolin-stimulated cAMP levels) [µM]","inhibition at 1 µM (hA2AAR; 1 µM compound, [3H]ZM241385 binding, read-out: I% hA2A (percentage of inhibition)) [%]",Efficacy hA2B (cAMP assay) (hA2B AR [4]) [%]
"Cl.N#Cc1c(N)nc(SCc2cnc[nH]2)c(C#N)c1-c1ccco1 [Compound 11, 2-Amino-4-(furan-2-yl)-6-[(1H-imidazol-5-ylmethyl)sulfanyl]pyridine-3,5-dicarbonitrile hydrochloride]",0.442 ± 0.037,147 to 148,0.051 ± 0.004,4,> 1,0.849 ± 0.074,0.125 ± 0.011,0.82 ± 0.07,Antagonist,,,,
"N#Cc1c(N)nc(NCc2ncc[nH]2)c(C#N)c1-c1ccco1 [Compound 12, 2-Amino-4-(furan-2-yl)-6-[(1H-imidazol-2-ylmethyl)amino]pyridine-3,5-dicarbonitrile]",0.157 ± 0.014,265 to 266,0.315 ± 0.028,3,> 1,,0.768 ± 0.067,1.31 ± 0.11,Antagonist,16,,,
"N#Cc1c(N)nc(SCC(=O)NCc2cnc[nH]2)c(C#N)c1-c1ccco1 [Compound 15, 2-{[6-Amino-3,5-dicyano-4-(furan-2-yl)pyridin-2-yl]sulfanyl}-N-(1H-imidazol-5-ylmethyl)acetamide]",0.225 ± 0.018,269 to 270,0.378 ± 0.026,1,> 1,0.758 ± 0.066,,,,,,,
"N#Cc1c(N)nc(SCC(=O)NCCc2cnc[nH]2)c(C#N)c1-c1ccco1 [Compound 16, 2-{[6-Amino-3,5-dicyano-4-(furan-2-yl)pyridin-2-yl]sulfanyl}-N-[2-(1H-imidazol-5-yl)ethyl]acetamide]",0.138 ± 0.011,223 to 226,0.03 ± 0.003,1,> 1,,,−43 ± 4,Inverse Agonist,30,0.059 ± 0.004,,
N#Cc1c(NC2CCCC2)nc(SCc2ncc[nH]2)c(C#N)c1-c1ccco1 [Compound 18],0.138 ± 0.011,221 to 222,0.393 ± 0.032,2,> 1,0.279 ± 0.021,,,,,,,
N#Cc1c(NC2CC2)nc(SCc2ncc[nH]2)c(C#N)c1-c1ccco1 [Compound 19],,241 to 242,0.292 ± 0.026,13,> 1,,,,,18,,1,
N#Cc1c(SCc2ncc[nH]2)nc(N2CCCC2)c(C#N)c1-c1ccco1 [Compound 20],0.089 ± 0.007,232 to 234,0.041 ± 0.003,8,> 1,0.118 ± 0.011,,,,,,,
"N#Cc1c(N)nc(SCc2ncc[nH]2)c(C#N)c1-c1ccccc1 [LUF5833, 2-amino-6-[(1H-imidazol-2-ylmethyl)sulfanyl]-4-phenylpyridine-3,5-dicarbonitrile]",,,,,,,,,,,,,81
